Laboratory results taken from ChEMBL document CHEMBL3714767, “Imidazothiadiazole and imidazopyridazine derivatives as protease activated receptor 4 (PAR4) inhibitors for treating platelet aggregation” (2013).
The source made the active and inactive calls. No cut-off for these calls is given here. Where a SMILES comes first, the peptide text is derived from it. [ ]: non-standard residue; d: D form. The star is where a group is joined. Phe(4-guanidino) = N=C(N)Nc1ccc(C[C@H](N)C(=O)O)cc1; Phe(4-F) = N[C@@H](Cc1ccc(F)cc1)C(=O)O; X1 = O=C(/C=C/c1ccccc1)*

Tests used:
[1] = target: T1, Proteinase-activated receptor 4 (Homo sapiens) (UniProt Q96RI0); test: Antagonist activity against PAR4 in washed human platelets assessed as inhibition of alpha-thrombin-induced platelet aggregation at 30 to 300 nM pre-incubated for 20 mins before alpha-thrombin addition and measured over 100 to 500 secs by optical aggregometry; format: functional
T1 sequence (whole entry): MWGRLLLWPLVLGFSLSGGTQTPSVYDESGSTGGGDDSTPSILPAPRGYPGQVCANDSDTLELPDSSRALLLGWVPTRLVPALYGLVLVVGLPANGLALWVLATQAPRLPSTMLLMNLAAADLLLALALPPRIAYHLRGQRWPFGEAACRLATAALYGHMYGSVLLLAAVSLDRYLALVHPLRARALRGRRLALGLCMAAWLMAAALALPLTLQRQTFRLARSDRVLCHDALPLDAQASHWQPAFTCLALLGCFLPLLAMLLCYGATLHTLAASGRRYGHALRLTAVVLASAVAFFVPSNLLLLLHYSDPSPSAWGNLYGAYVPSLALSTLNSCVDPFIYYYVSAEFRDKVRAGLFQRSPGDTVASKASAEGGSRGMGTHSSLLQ

[2] = target: T2, Proteinase-activated receptor 1 (Homo sapiens) (UniProt P25116); test: Antagonist activity against PAR1 in washed human platelets assessed as inhibition of alpha-thrombin-induced platelet aggregation at 30 to 300 nM pre-incubated for 20 mins before alpha-thrombin addition and measured over 100 to 500 secs by optical aggregometry; format: functional
T2 sequence (whole entry): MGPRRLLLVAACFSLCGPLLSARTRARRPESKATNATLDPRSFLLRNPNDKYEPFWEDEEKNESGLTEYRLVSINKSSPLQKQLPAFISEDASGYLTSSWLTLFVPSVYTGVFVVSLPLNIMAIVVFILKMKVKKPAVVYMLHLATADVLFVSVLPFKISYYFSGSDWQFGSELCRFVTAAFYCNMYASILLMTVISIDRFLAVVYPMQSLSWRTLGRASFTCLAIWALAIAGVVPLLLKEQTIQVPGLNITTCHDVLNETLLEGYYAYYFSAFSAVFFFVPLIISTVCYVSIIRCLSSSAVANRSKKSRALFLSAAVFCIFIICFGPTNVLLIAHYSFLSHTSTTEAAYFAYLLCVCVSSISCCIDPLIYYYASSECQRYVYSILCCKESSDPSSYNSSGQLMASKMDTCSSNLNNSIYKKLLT

Row | Structure (SMILES) | inhibition [1] | inhibition [2]
1 | COc1cc(OCc2cccc(-c3ccc(C#N)nc3)c2)c2cc(-c3cn4nc(OC)sc4n3)oc2c1 | Active | 
2 | CC(C)C[C@H](NC(=O)[C@H](Cc1ccc(NC(=N)N)cc1)NC(=O)[C@H](Cc1ccc(F)cc1)NC(=O)/C=C/c1ccccc1)C(=O)N[C@@H](CCCNC(=N)N)C(=O)N[C@@H](CCCNC(=N)N)C(=O)O (X1-[Phe(4-F)][Phe(4-guanidino)]LRR-OH) |  | Active
